Assays:
recombinant BRD4 BD1 = molecular target: T1, recombinant BRD4 BD1 (Homo sapiens, UniProt O60885); test: Competitive fluorescence-polarization (FP) binding assay, BRD4 BD1; details: competitive FP assay; protein 10 nM, probe […]; read-out: IC50 (nM) BRD4 BD1; further: probe 1.5 nM
T1 construct: for recombinant BRD4 BD1 and BRD4 BD2 proteins
Outline: (§1)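 Buffer: 100 mM potassium phosphate, pH 6.5, 0.01% Triton X-100; compounds added in buffer with 40% ethylene glycol to preformed complex of fluorescent probe with BRD4 BD1 (10 nM final) or BD2 (6 nM final). After 30 min at room temperature, polarization read. IC50 from nonlinear fits of competition curves, with Ki.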

MOLM-13 = test: Cell growth inhibition, MOLM-13 leukemia cells (CellTiter-Glo); format: cell-based; details: Homo sapiens, MOLM-13, 96 h; 4 days; read-out: IC50 (nM) MOLM-13 Cell Line (CellTiter-Glo assay)
Outline: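 Luminescent ATP-based viability (CellTiter-Glo, 10-20 min at room temperature) in compound-treated MOLM-13 cells; the half-maximal inhibitory concentration was calculated from the readout.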

MDA-MB-436 = test: Cell growth inhibition, MDA-MB-436 breast cancer cells (WST-8); format: cell-based; details: Homo sapiens, MDA-MB-436, 96 h; 4 days; read-out: IC50 (nM) MDA-MB-436 Cell Line (WST assay)
Outline: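 IC50 was computed from WST-8-based cell counting in MDA-MB-436 cells, with absorbance read at 450 nm.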

recombinant BRD4 BD2 = molecular target: T2, recombinant BRD4 BD2 (Homo sapiens, UniProt O60885); test: Competitive fluorescence-polarization (FP) binding assay, BRD4 BD2; details: competitive FP assay; protein 6 nM, probe […]; read-out: IC50 (nM) BRD4 BD2; further: probe 1.5 nM
T2 construct: for recombinant BRD4 BD1 and BRD4 BD2 proteins
Outline: as §1

Row | SMILES | IC50 (recombinant BRD4 BD1) [nM] | IC50 (MOLM-13) [nM] | IC50 (MDA-MB-436) [nM] | IC50 (recombinant BRD4 BD2) [nM]
1 | COc1cc2c(cc1-c1c(C)noc1C)[nH]c1nc(C)nc(Nc3nn(C)c4ccc(Cl)cc34)c12 [Cpd. No. 13, N-(5-Chloro-1-methyl-1H-indazol-3-yl)-7-(3,5-dimethylisoxazol-4-yl)-6-methoxy-2-methyl-9H-pyrimido[4,5-b]indol-4-amine] | > 1000 | 108 | 1080 | > 1000
2 | COc1cc2c(cc1-c1c(C)noc1C)[nH]c1nc(C)nc(Nc3nn(C)c4ccncc34)c12 [Cpd. No. 11, 7-(3,5-dimethylisoxazol-4-yl)-6-methoxy-2-methyl-N-(1-methyl-1H-pyrazolo[4,3-c]pyridin-3-yl)-9H-pyrimido[4,5-b]indol-4-amine] | 240 | 23.9 | 398 | 235
3 | COc1cc2c(cc1-c1c(C)noc1C)[nH]c1nc(C)nc(Nc3cc(C(C)(C)C)n[nH]3)c12 [Cpd. No. 126, N-(3-(tert-Butyl)-1H-pyrazol-5-yl)-7-(3,5-dimethylisoxazol-4-yl)-6-methoxy-2-methyl-9H-pyrimido[4,5-b]indol-4-amine] | 11 | 65.3 | 140 | 32.8
4 | COc1cc2c(cc1-c1c(C)noc1C)[nH]c1nc(C)nc(Nc3cnccc3C)c12 [Cpd. No. 109, 7-(3,5-dimethylisoxazol-4-yl)-6-methoxy-2-methyl-N-(4-methylpyridin-3-yl)-9H-pyrimido[4,5-b]indol-4-amine] | 284 | 12 | 679 | 253
5 | COc1cc2c(cc1-c1c(C)noc1C)[nH]c1nc(C)nc(Nc3cnn4c3CCCC4)c12 [Cpd. No. 139, 7-(3,5-Dimethylisoxazol-4-yl)-6-methoxy-2-methyl-N-(4,5,6,7-tetrahydropyrazolo[1,5-a]pyridin-3-yl)-9H-pyrimido[4,5-b]indol-4-amine] | 16.3 | 49.2 | 110 | 16.5
6 | COc1cc2c(cc1-c1c(C)noc1C)[nH]c1nc(C)nc(Nc3c(C(C)C)nn(C)c3C)c12 [Cpd. No. 194, 7-(3,5-dimethylisoxazol-4-yl)-N-(3-isopropyl-1,5-dimethyl-1H-pyrazol-4-yl)-6-methoxy-2-methyl-9H-pyrimido[4,5-b]indol-4-amine] | 10.1 | 13.2 | 59.6 | 14.2
7 | COc1cc2c(cc1-c1c(C)noc1C)[nH]c1nc(C)nc(Nc3ncnn3C(C)C)c12 [Cpd. No. 29, 7-(3,5-dimethylisoxazol-4-yl)-N-(1-isopropyl-1H-1,2,4-triazol-5-yl)-6-methoxy-2-methyl-9H-pyrimido[4,5-b]indol-4-amine] | > 1000 | 82.1 | 1110 | > 1000
8 | COc1cc2c(cc1-c1c(C)noc1C)[nH]c1nc(C)nc(Nc3cc(C(C)(C)C)nn3C)c12 [Cpd. No. 120, N-(3-tert-Butyl-1-methyl-1H-pyrazol-5-yl)-7-(3,5-dimethylisoxazol-4-yl)-6-methoxy-2-methyl-9H-pyrimido[4,5-b]indol-4-amine] | 9.6 | 23 | 23.5 | 5.8
9 | COc1cc2c(cc1-c1c(C)noc1C)[nH]c1nc(C)nc(Nc3c(C4CC4)nn(C)c3C3CC3)c12 [Cpd. No. 239, N-(3,5-dicyclopropyl-1-methyl-1H-pyrazol-4-yl)-7-(3,5-dimethylisoxazol-4-yl)-6-methoxy-2-methyl-9H-pyrimido[4,5-b]indol-4-amine] | 19 | 22 | 43 | 28
10 | COc1cc2c(cc1-c1c(C)noc1C)[nH]c1nc(C)nc(Nc3ccccc3)c12 [Cpd. No. 226, 7-(3,5-dimethylisoxazol-4-yl)-6-methoxy-2-methyl-N-phenyl-9H-pyrimido[4,5-b]indol-4-amine] | 21 | 94 | 91 | 20
11 | COc1cc2c(cc1-c1c(C)noc1C)[nH]c1nc(C)nc(Nc3c(C)cnn3C3CC3)c12 [Cpd. No. 197, N-(1-cyclopropyl-4-methyl-1H-pyrazol-5-yl)-7-(3,5-dimethylisoxazol-4-yl)-6-methoxy-2-methyl-9H-pyrimido[4,5-b]indol-4-amine] | 70.1 | 357 | 511 | 69.9
12 | COc1cc2c(cc1-c1c(C)noc1C)[nH]c1nc(C)nc(Oc3cncc(Br)c3)c12 [Cpd. No. 105, 4-(4-(5-bromopyridin-3-yloxy)-6-methoxy-2-methyl-9H-pyrimido[4,5-b]indol-7-yl)-3,5-dimethylisoxazole] | > 1000 | 371 | 885 | 868
13 | CCn1nc(C)c(C2CC2)c1Nc1nc(C)nc2[nH]c3cc(-c4c(C)noc4C)c(OC)cc3c12 [Cpd. No. 143, N-(4-Cyclopropyl-1-ethyl-3-methyl-1H-pyrazol-5-yl)-7-(3,5-dimethylisoxazol-4-yl)-6-methoxy-2-methyl-9H-pyrimido[4,5-b]indol-4-amine] | 27.9 | 98 | 175 | 57.7
14 | COc1cc2c(cc1-c1c(C)noc1C)[nH]c1nc(C)nc(Nc3cccc(C)c3)c12 [Cpd. No. 212, 7-(3,5-dimethylisoxazol-4-yl)-6-methoxy-2-methyl-N-m-tolyl-9H-pyrimido[4,5-b]indol-4-amine] | 18 | 103 | 112 | 8
15 | COc1cc2c(cc1-c1c(C)noc1C)[nH]c1nc(C)nc(Nc3c4c(nn3C(C)C)CCCC4)c12 [Cpd. No. 138, 7-(3,5-Dimethylisoxazol-4-yl)-N-(2-isopropyl-4,5,6,7-tetrahydro-2H-indazol-3-yl)-6-methoxy-2-methyl-9H-pyrimido[4,5-b]indol-4-amine] | 4.2 | 5.7 | 30.3 | 1.2

The remaining compounds from weak to strong by IC50 (recombinant BRD4 BD1), led by results:

Row | IC50 (recombinant BRD4 BD1) [nM] | IC50 (MOLM-13) [nM] | IC50 (MDA-MB-436) [nM] | IC50 (recombinant BRD4 BD2) [nM] | SMILES
16 | 978 | 266 | 811 | 786 | COc1cc2c(cc1-c1c(C)noc1C)[nH]c1nc(C)nc(Nc3nnc4ccccn34)c12 [compound 101, N-([1,2,4]triazolo[4,3-a]pyridin-3-yl)-7-(3,5-dimethylisoxazol-4-yl)-6-methoxy-2-methyl-9H-pyrimido[4,5-b]indol-4-amine]
17 | 76 | 171 | 380 | 13 | COc1cc2c(cc1-c1c(C)noc1C)[nH]c1nc(C)nc(Nc3c(-c4ccccc4)noc3C)c12 [Cpd. No. 98, N-(7-(3,5-dimethylisoxazol-4-yl)-6-methoxy-2-methyl-9H-pyrimido[4,5-b]indol-4-yl)-5-methyl-3-phenylisoxazol-4-amine]
18 | 41 | 74 | 146 | 52 | COc1cc2c(cc1-c1c(C)noc1C)[nH]c1nc(C)nc(Nc3cccc4c3cnn4C)c12 [Cpd. No. 235, 7-(3,5-dimethylisoxazol-4-yl)-6-methoxy-2-methyl-N-(1-methyl-1H-indazol-4-yl)-9H-pyrimido[4,5-b]indol-4-amine]
19 | 29 | 62 | 238 | 52 | COc1cc2c(cc1-c1c(C)noc1C)[nH]c1nc(C)nc(Nc3ccc4c(c3)N(C)CC4)c12 [Cpd. No. 232, 7-(3,5-dimethylisoxazol-4-yl)-6-methoxy-2-methyl-N-(1-methylindolin-6-yl)-9H-pyrimido[4,5-b]indol-4-amine]
20 | 21.9 | 97.4 | 154 | 35.1 | COc1cc2c(cc1-c1c(C)noc1C)[nH]c1nc(C)nc(Nc3cn(C)nc3C(C)(C)O)c12 [compound 269, 2-(4-(7-(3,5-dimethylisoxazol-4-yl)-6-methoxy-2-methyl-9H-pyrimido[4,5-b]indol-4-ylamino)-1-methyl-1H-pyrazol-3-yl)propan-2-ol]
21 | 14.3 | 63.3 | 93.9 | 23 | CCc1nn(C)c(Nc2nc(C)nc3[nH]c4cc(-c5c(C)noc5C)c(OC)cc4c23)c1C [Cpd. No. 169, 7-(3,5-dimethylisoxazol-4-yl)-N-(3-ethyl-1,4-dimethyl-1H-pyrazol-5-yl)-6-methoxy-2-methyl-9H-pyrimido[4,5-b]indol-4-amine]
22 | 10.5 | 38.8 | 121 | 10.9 | COc1cc2c(cc1-c1c(C)noc1C)[nH]c1nc(C)nc(Nc3c(C)c(C)nn3C3CCC3)c12 [Cpd. No. 187, N-(1-cyclobutyl-3,4-dimethyl-1H-pyrazol-5-yl)-7-(3,5-dimethylisoxazol-4-yl)-6-methoxy-2-methyl-9H-pyrimido[4,5-b]indol-4-amine]
23 | 5 | 41.9 | 58.3 | 29.5 | COc1cc2c(cc1-c1c(C)noc1C)[nH]c1nc(C)nc(Nc3nn(C)c4c3CCCC4)c12 [Cpd. No. 124, 7-(3,5-Dimethylisoxazol-4-yl)-6-methoxy-2-methyl-N-(1-methyl-4,5,6,7-tetrahydro-1H-indazol-3-yl)-9H-pyrimido[4,5-b]indol-4-amine]
